According to publication PMC8998355, “Diversity-Oriented Synthesis Catalyzed by Diethylaminosulfur-Trifluoride—Preparation of New Antitumor Ecdysteroid Derivatives” (International Journal of Molecular Sciences, 2022):

Key:
[1] = design: method as in PMID 34825653; settings: cited from earlier work
[2] = target: T1, ABCB1 (Homo sapiens, UniProt P08183); experiment: ABCB1 inhibition assay (rhodamine 123 accumulation, flow cytometry); assay type: cell-based; settings: human, probe rhodamine 123 (5.2 µM), L5178YMDR, rhodamine 123 accumulation, n = 1
T1 construct: expressed in transfected cells; host or cells: L5178Y mouse T-cell lymphoma cells transfected with pHa MDR1/A retrovirus, selected with colchicine (L5178YMDR)
Experimental: (§1) ABCB1 inhibition was determined by the intracellular accumulation of rhodamin 123 as reported before. Briefly, 2 × 10^6 cells/mL of L5178Y and L5178YMDR cell lines were re-suspended in serum-free McCoy’s 5A medium and distributed in 0.5 mL aliquots into Eppendorf centrifuge tubes. The compounds were added at a final concentration of 2 or 20 μM and the samples were incubated for 10 min at room temperature. Tariquidar was used as positive control and DMSO as negative control; for the latter, no activity was observed. Subsequently, 10 μL (5.2 μM final concentration) of the ABCB1 substrate fluorescent dye rhodamine 123 was added and the cells were incubated further for 20 min at 37 °C, washed twice and re-suspended in 1 mL PBS for analysis. Fluorescence of the cell population was measured with a PartecCyFlow® flow cytometer (Partec, Münster, Germany). Mean fluorescence intensity percentage was calculated for the treated vs. untreated L5178YMDR cells. Inhibition percentage for the treated cells was calculated from the corresponding values of the untreated L5178Y and L5178YMDR cells, representing 100% and 0% inhibition, respectively.

[3] = test system: L5178YMDR cells (ABCB1-expressing); experiment: MTT cytotoxicity assay (24 h, 1 × 10^4 cells); assay type: cell-based; settings: Mus musculus, 24 h MTT, n = 3, read-out: Cytotoxicity (IC50 ± SD)
Experimental: (§2) To assess the compounds’ effect on cell growth and viability, we used two different experimental setups of MTT assay. This allowed a comparative evaluation of results obtained from a short-term (24 h) treatment of a relatively higher number (10,000) of cells and those from a long-term (72 h) treatment of a lower cell number (6000), which makes it possible to gain some insight into the cytotoxic vs. cytostatic properties of the compounds. Even though MTT assay is an endpoint detection method, i.e., it provides a single readout of viable cells at the end of the experiment, such a comparison offers a reliable tool to identify antiproliferative activity of compounds that are not cytotoxic.
(§3) L5178Y mouse T-cell lymphoma cells (ECACC Cat. No. 87111908) were obtained from FDA, Silver Spring, MD, USA. These were transfected with pHa MDR1/A retrovirus as described previously. ABCB1-expressing L5178YMDR cells were selected by culturing the infected cells with colchicine. The cell lines were cultured in McCoy’s 5A medium supplemented with 10% heat inactivated horse serum, 2 mM L-glutamine, and penicillin–streptomycin mixture.
(§4) MTT assay was performed in 96-well flat-bottomed microtiter plates as described before. Briefly, a 10 mM concentration stock solution in DMSO was prepared for each compound. These were diluted in 100 μL of McCoy’s 5A medium. Subsequently, 1 × 10^4 (cytotoxicity assay) or 6 × 10^3 (antiproliferative assay) T-cell mouse lymphoma cells in 100 μL of medium were added to each well, except for the medium control wells.
(§5) The culture plates were further incubated at 37 °C for 24 h (cytotoxicity assay) or 72 h (antiproliferative assay); at the end of the incubation period, 20 μL of MTT solution (from a 5 mg/mL stock) was added to each well. After incubation at 37 °C for 4 h, 100 μL of SDS solution (10% in 0.01 M HCI) was added to each well and the plates were further incubated at 37 °C overnight. The cell growth was determined by measuring the optical density at 540 nm (ref. 630 nm) with a Multiscan EX ELISA reader (Thermo Labsystems, Cheshire, WA, USA). IC50 values were calculated by variable slope nonlinear regression using the log(inhibitor) vs. normalized response of GraphPad Prism 5.01 (GraphPad Software Inc., San Diego, CA, USA).

[4] = test system: L5178Y mouse T-cell lymphoma cells; experiment: MTT cytotoxicity assay (24 h, 1 × 10^4 cells); assay type: cell-based; settings: 24 h MTT, n = 3, read-out: Cytotoxicity (IC50 ± SD)
Experimental: as §2, §3, §4, §5

[5] = test system: L5178YMDR cells; experiment: Combination assay with doxorubicin (checkerboard microplate method, MTT); assay type: cell-based, mouse; design: Dm (antilog of the x-intercept of the median-effect plot): unit not given here; settings: for CIavg (weighted average CI): (CI50 + 2CI75 + 3CI90)/6
Experimental: Compounds 7, 10, 11, 13, and 14 had sufficient individual antiproliferative properties for their assessment of chemo-sensitizing activity. This was carried out as an antiproliferative assay on L5178YMDR cells in combination with doxorubicin, arranged according to the checkerboard microplate method.
The checkerboard microplate method was used to evaluate the compounds’ interaction with doxorubicin, as described before. Briefly, doxorubicin (2 mg/mL, Teva Pharmaceuticals, Budapest, Hungary) was serially diluted in the horizontal direction (100 µL per well), and the ecdysteroid was subsequently diluted in the vertical direction (50 µL per well). L5178YMDR cells were re-suspended in culture medium and added to each test well in 50 µL to contain 1 × 10^4 cells per well, and 50 µL of medium was added to the medium control wells. The plates were incubated for 72 h at 37 °C in a CO2 incubator and, at the end of the incubation period, the cell growth was determined by MTT assay as described above. Cell viability data were analyzed by the Calcusyn software using the Chou method, and drug interactions were expressed as combination index (CI) values, in which 0 < CI < 1, CI = 1, and CI > 1 refer to synergism, additivity, and antagonism, respectively.

[6] = test system: MRC-5 human embryonal lung fibroblasts; experiment: MTT antiproliferative assay (72 h); assay type: cell-based; settings: for IC50: Homo sapiens, MRC5, MRC-5, 72 h MTT, n = 3, read-out: Antiproliferative Effect (IC50 ± SD)
Experimental: as §2
(§6) MRC-5 human embryonal lung fibroblasts (CCL-171, ATCC) were acquired from Sigma-Aldrich (Merck, KGaA, Darmstadt, Germany), and were cultured in EMEM medium containing 4.5 g/L glucose and supplemented with a non-essential amino acid mixture, a selection of vitamins, and 10% of FBS.
(§7) The adherent human fibroblast cells were seeded in 100 μL of EMEM medium overnight before each assay. Two-fold serial dilutions of the compounds (0.19–100 µM) were prepared in separate plates, then transferred to the plates containing the adherent cell lines.
as §5

[7] = MTT cytotoxicity assay (24 h); assay type: cell-based; settings: human, MRC-5 human embryonal lung fibroblasts; MRC-5, 24 h MTT, n = 3; read-out: Cytotoxicity (IC50 ± SD)
Experimental: as §2, §6, §7, §5

[8] = test system: L5178YMDR cells (ABCB1-expressing); experiment: MTT antiproliferative assay (72 h, 6 × 10^3 cells); assay type: cell-based; settings: Mus musculus, 72 h MTT, n = 3, read-out: Antiproliferative Effect (IC50 ± SD)
Experimental: as §2, §3, §4, §5

[9] = test system: L5178Y mouse T-cell lymphoma cells; experiment: MTT antiproliferative assay (72 h, 6 × 10^3 cells); assay type: cell-based; settings: for IC50: Mus musculus
Experimental: as §2, §3, §4, §5

[10] = target: T2, ABCB1 transporter (Homo sapiens, UniProt P08183); experiment: ABCB1 inhibition assay (rhodamine 123 accumulation, flow cytometry); assay type: cell-based; settings: L5178YMDR, 2 or 20 µM
T2 construct: expressed in transfected cells; host or cells: L5178Y mouse T-cell lymphoma cells transfected with pHa MDR1/A retrovirus, selected with colchicine (L5178YMDR)
Experimental: as §1

[11] = drug ratio 23.2:1, with doxorubicin
[12] = drug ratio 46.4:1, with doxorubicin
[13] = drug ratio 92.8:1, with doxorubicin
[14] = drug ratio 185.6:1, with doxorubicin
[15] = drug ratio 371.2:1, with doxorubicin
[16] = L5178Y, 72 h MTT, n = 3, read-out: Antiproliferative Effect (IC50 ± SD)

Structure (SMILES)	inhibition at 20 min, 2 µM [2] [%]	inhibition at 20 min, 20 µM [2] [%]	IC50 [3] [µM]	IC50 [4] [µM]	CI at ED75 [5, 11]	CI at ED90 [5, 11]	Dm (antilog of the x-intercept of the median-effect plot) [5, 11]	CIavg (weighted average CI) [5, 11]	CI at ED75 [5, 12]	CI at ED90 [5, 12]	Dm (antilog of the x-intercept of the median-effect plot) [5, 12]	CIavg (weighted average CI) [5, 12]	CI at ED75 [5, 13]	CI at ED90 [5, 13]	Dm (antilog of the x-intercept of the median-effect plot) [5, 13]	CIavg (weighted average CI) [5, 13]	CI at ED75 [5, 14]	CI at ED90 [5, 14]	Dm (antilog of the x-intercept of the median-effect plot) [5, 14]	CIavg (weighted average CI) [5, 14]	also measured
CC(C)(O)CC[C@@H](O)[C@](C)(O)[C@H]1CC[C@@]2(O)C3=CC(=O)[C@@H]4C[C@@H](O)[C@@H](O)C[C@]4(C)[C@H]3CC[C@]12C [20-hydroxyecdysone]	–	–	–	–	–	–	–	–	–	–	–	–	–	–	–	–	–	–	–	–	MasR activity, in words [1]: agonist
CC(=O)[C@H]1CC[C@@]2(F)C3=CC(=O)[C@@H]4C[C@H]5OC(C)(C)O[C@H]5C[C@]4(C)[C@H]3CC[C@]12C [Compound 11]	-0.57	-0.51	81.9 ± 2.9	91.9 ± 9.3	0.56	0.41	7.00	0.52	0.55	0.39	11.66	0.51	0.53	0.38	15.83	0.49	0.66	0.48	24.06	0.61	CI at ED75 [5, 15]: 0.72; CI at ED90 [5, 15]: 0.55; Dm (antilog of the x-intercept of the median-effect plot) [5, 15]: 28.63; CIavg (weighted average CI) [5, 15]: 0.67; IC50 [6]: 10 ± 2.1 µM; IC50 at 24 h [7]: > 100 µM; IC50 [8]: 55.7 ± 5.9 µM; IC50 [9, 16]: 31.8 ± 2.1 µM
CC(=O)N[C@H]1CC=C2C3=CC(=O)[C@@H]4C[C@H]5OC(C)(C)O[C@H]5C[C@]4(C)[C@H]3CC[C@@]21C [Compound 13]	0.09	-0.01	> 100	> 100	0.55	0.49	8.17	0.53	0.51	0.39	14.17	0.48	0.51	0.47	17.54	0.50	0.68	0.65	29.89	0.67	direct ABCB1 / efflux pump inhibition, in words [10]: inactive; interaction with doxorubicin, in words ([5]; checkerboard, 72 h): relevant synergism with doxorubicin already at 50% inhibition; IC50 [6]: 12 ± 1.9 µM; selective antiproliferative activity against both tumor cell lines ([6]; tumor cell lines vs MRC-5): ca. 2.5 times; IC50 at 24 h [7]: 35 ± 3.2 µM; IC50 [8]: 4.8 ± 0.6 µM; IC50 [9, 16]: 4.6 ± 0.8 µM; IC50 ([9]; text summary for both lymphoma cell lines (L5178Y and L5178YMDR), read-out: antiproliferative activity on the lymphoma cell lines (IC50)): ~4.7 µM; antiproliferative activity stronger than cytotoxicity ([9]; lymphoma cell lines, ratio of cytotoxic to antiproliferative IC50): over 20 times
CC(=O)N[C@H]1CC[C@@]2(F)C3=CC(=O)[C@@H]4C[C@H]5OC(C)(C)O[C@H]5C[C@]4(C)[C@H]3CC[C@]12C [Compound 14]	0.2	-0.12	> 100	> 100	0.73	0.63	9.04	0.70	0.72	0.60	13.53	0.68	0.86	0.74	20.47	0.82	1.26	1.24	30.97	1.25	IC50 [6]: > 100 µM; IC50 at 24 h [7]: > 100 µM; IC50 [8]: 65.9 ± 2.1 µM; IC50 [9, 16]: 71.6 ± 1.5 µM
